What was measured:
PI3Kα (p110α/p85α) = PI3Kα (p110α/p85α) (Homo sapiens, UniProt P42336); assay: ADP-Glo Kinase Assay, inhibition of PI3Kα
PI3Kγ (p120γ) = PI3Kγ (p120γ) (Homo sapiens, UniProt P48736); assay: ADP-Glo Kinase Assay, inhibition of PI3Kγ
PI3Kδ (p110δ/p85α) = PI3Kδ (p110δ/p85α) (Homo sapiens, UniProt O00329); assay: ADP-Glo Kinase Assay, inhibition of PI3Kδ
[1] = retrieved from database; ref TCMSP database [18]; cited from earlier work
PI3Kβ (p110β/p85α) = PI3Kβ (p110β/p85α) (Homo sapiens, UniProt P42338); assay: ADP-Glo Kinase Assay, inhibition of PI3Kβ
Sequence of PI3Kβ (p110β/p85α) (P42338 whole entry): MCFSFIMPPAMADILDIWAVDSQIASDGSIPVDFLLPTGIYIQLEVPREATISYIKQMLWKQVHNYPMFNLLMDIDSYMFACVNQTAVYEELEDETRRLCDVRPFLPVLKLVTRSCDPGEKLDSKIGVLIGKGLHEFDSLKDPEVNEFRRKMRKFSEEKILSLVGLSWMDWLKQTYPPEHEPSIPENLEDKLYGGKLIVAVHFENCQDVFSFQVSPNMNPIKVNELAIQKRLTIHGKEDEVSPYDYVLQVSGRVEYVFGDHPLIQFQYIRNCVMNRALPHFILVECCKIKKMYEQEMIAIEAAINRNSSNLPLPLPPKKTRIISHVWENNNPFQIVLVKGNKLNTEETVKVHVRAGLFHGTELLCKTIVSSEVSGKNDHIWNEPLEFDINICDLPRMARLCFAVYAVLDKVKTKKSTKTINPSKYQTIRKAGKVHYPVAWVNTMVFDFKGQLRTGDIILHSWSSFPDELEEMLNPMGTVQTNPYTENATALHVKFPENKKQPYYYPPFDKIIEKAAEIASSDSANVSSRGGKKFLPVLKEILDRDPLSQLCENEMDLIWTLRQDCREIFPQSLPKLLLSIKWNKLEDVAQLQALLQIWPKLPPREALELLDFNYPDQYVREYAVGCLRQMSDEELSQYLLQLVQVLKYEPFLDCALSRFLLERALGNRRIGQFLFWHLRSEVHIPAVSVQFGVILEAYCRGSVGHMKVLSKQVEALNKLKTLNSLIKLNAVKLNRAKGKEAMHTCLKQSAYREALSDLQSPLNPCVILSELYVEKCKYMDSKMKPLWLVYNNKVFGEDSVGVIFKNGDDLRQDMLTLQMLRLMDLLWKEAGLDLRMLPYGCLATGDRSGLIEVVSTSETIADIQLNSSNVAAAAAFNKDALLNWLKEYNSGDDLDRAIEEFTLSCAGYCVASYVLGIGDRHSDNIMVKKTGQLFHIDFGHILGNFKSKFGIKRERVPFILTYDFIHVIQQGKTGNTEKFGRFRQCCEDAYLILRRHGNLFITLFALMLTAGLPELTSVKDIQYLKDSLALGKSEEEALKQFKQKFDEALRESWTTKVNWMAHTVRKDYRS
Sequence of PI3Kβ (p110β/p85α) (P27986 whole entry partner): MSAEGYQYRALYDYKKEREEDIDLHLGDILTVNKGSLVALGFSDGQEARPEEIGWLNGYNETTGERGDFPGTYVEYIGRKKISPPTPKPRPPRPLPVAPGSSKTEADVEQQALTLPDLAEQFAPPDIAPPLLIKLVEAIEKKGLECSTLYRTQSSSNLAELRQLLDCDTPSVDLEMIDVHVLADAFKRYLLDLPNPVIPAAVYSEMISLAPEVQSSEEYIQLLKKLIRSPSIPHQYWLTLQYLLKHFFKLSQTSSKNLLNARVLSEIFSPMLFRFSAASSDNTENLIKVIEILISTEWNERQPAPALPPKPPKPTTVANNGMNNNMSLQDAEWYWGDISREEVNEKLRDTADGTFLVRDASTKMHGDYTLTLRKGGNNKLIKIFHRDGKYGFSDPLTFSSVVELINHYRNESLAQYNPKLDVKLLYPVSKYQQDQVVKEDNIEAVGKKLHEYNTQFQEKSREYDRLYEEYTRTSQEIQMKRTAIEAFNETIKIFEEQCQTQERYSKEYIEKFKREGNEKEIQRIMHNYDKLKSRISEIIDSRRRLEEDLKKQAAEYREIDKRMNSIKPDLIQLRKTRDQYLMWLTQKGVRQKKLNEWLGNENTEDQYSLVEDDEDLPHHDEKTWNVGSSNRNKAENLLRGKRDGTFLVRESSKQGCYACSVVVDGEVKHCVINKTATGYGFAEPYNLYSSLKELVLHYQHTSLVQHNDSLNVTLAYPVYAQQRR

[2] = parameters: method as in TCMSP database [18]; details: retrieved from database; ref TCMSP database [18]; in h (unit assumed); cited from earlier work

Sequence of PI3Kδ (p110δ/p85α) (O00329 whole entry): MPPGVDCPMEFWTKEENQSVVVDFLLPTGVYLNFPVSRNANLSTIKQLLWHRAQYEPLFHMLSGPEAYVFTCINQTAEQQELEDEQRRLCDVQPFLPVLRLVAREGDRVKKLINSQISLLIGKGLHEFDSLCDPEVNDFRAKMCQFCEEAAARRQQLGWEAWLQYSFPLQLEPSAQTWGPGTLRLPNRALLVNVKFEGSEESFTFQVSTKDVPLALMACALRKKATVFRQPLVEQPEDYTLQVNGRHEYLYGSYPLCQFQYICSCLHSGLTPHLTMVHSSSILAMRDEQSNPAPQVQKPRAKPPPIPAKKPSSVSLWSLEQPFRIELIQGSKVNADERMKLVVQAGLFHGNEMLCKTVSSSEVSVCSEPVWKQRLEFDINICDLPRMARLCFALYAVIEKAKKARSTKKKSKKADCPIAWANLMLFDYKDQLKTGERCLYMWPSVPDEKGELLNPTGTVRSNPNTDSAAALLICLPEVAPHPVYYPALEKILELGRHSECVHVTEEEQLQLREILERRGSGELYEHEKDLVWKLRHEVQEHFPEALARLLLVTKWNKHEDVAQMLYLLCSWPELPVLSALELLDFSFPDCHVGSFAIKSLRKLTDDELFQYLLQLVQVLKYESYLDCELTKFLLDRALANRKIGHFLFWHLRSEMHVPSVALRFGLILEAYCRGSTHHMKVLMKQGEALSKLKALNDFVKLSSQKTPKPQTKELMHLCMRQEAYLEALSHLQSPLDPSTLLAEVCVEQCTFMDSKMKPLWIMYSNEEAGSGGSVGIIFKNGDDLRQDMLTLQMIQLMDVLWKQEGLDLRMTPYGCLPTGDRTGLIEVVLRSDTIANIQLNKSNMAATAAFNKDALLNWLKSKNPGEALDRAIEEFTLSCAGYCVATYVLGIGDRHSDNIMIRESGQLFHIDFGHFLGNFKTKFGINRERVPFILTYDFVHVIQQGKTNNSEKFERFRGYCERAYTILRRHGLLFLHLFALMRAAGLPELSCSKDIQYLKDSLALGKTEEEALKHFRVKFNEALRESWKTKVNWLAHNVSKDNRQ
Sequence of PI3Kδ (p110δ/p85α) (P27986 whole entry partner): as the sequence (P27986 whole entry partner) above
Sequence of PI3Kγ (p120γ) (P48736 whole entry): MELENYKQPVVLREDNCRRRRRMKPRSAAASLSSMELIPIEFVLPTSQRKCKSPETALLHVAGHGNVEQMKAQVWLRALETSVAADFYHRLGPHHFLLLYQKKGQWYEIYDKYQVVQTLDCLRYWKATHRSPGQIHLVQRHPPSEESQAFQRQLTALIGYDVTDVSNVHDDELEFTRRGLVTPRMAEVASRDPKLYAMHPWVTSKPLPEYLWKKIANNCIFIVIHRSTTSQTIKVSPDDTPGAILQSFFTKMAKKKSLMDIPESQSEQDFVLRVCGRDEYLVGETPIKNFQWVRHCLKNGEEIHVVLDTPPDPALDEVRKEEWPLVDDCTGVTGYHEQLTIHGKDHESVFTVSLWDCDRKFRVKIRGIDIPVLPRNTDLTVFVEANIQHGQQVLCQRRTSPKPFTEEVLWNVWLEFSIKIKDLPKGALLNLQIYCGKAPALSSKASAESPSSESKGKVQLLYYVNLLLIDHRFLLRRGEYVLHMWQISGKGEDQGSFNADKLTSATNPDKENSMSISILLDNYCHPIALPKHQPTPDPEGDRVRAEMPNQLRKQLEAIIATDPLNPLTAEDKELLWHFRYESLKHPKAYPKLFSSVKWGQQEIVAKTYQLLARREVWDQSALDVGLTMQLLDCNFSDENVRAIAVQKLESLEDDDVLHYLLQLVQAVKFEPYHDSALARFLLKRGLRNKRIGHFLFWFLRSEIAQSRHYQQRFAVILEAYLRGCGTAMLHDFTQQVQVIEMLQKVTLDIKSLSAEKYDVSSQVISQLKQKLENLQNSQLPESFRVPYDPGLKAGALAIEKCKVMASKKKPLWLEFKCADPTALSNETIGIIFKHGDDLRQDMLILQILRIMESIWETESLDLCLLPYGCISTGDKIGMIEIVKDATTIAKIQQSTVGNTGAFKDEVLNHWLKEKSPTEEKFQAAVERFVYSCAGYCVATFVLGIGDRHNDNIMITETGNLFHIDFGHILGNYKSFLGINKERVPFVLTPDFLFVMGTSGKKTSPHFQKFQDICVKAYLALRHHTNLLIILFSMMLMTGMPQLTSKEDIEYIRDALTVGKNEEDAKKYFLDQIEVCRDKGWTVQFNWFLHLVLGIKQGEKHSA
Sequence of PI3Kα (p110α/p85α) (P42336 whole entry): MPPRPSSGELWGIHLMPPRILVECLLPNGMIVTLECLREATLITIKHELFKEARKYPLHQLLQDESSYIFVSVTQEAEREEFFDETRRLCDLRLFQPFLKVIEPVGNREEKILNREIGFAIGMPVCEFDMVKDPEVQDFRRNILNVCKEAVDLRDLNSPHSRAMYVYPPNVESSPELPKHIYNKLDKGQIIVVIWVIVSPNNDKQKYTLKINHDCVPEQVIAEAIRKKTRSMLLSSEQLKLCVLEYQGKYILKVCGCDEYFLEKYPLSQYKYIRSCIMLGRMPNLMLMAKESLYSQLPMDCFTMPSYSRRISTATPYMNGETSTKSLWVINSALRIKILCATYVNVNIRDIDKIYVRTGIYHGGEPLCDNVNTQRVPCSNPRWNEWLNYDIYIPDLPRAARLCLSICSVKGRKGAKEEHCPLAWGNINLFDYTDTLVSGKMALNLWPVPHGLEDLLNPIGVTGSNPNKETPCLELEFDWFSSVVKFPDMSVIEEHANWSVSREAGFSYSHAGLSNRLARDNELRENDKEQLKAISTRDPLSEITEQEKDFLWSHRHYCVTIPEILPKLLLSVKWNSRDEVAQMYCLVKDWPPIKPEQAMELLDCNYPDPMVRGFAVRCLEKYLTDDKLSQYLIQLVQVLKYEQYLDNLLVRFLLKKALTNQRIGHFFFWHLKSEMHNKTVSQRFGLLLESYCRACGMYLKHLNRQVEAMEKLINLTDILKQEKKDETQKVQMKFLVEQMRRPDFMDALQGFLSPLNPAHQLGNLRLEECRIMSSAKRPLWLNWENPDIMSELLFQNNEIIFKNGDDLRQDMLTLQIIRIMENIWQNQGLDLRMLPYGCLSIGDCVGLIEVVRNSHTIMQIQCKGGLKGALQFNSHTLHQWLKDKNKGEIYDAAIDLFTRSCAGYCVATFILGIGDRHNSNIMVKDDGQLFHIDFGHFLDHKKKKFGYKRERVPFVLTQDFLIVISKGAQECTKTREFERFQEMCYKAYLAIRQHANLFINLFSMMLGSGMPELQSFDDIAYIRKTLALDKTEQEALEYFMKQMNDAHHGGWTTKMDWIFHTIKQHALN
Sequence of PI3Kα (p110α/p85α) (P27986 whole entry partner): as the sequence (P27986 whole entry partner) above

CC(C)=CCC/C(C)=C/COc1ccc2ccc(=O)oc2c1 [AUR, auraptene]
IC50 (PI3Kα (p110α/p85α)): > 40 µM
IC50 (PI3Kγ (p120γ)): 13.8 ± 1.31 µM
IC50 (PI3Kδ (p110δ/p85α)): > 40 µM
OB (oral bioavailability) [1]: 25.62%
IC50 (PI3Kβ (p110β/p85α)): > 40 µM

O=c1cc(-c2ccc(O)c(O)c2)oc2cc(O)cc(O)c12 [LUT, luteolin]
HL (drug half-life) [2]: 15.94
IC50 (PI3Kα (p110α/p85α)): 2.49 ± 0.34 µM
IC50 (PI3Kγ (p120γ)): 5.79 ± 0.1 µM
IC50 (PI3Kδ (p110δ/p85α)): 1.55 ± 0.15 µM
OB (oral bioavailability) [1]: 36.16%
IC50 (PI3Kβ (p110β/p85α)): 2.95 ± 0.19 µM

COc1ccc(-c2cc(=O)c3c(OC)c(OC)c(OC)c(OC)c3o2)cc1OC [NOB, nobiletin]
HL (drug half-life) [2]: 16.20
OB (oral bioavailability) [1]: 61.67%

COc1ccc(-c2cc(=O)c3c(OC)c(OC)c(OC)c(OC)c3o2)cc1 [TAN, tangeretin]
IC50 (PI3Kα (p110α/p85α)): > 40 µM
IC50 (PI3Kγ (p120γ)): 17.7 ± 1.16 µM
IC50 (PI3Kδ (p110δ/p85α)): > 40 µM
OB (oral bioavailability) [1]: 21.38%
IC50 (PI3Kβ (p110β/p85α)): > 40 µM

O=C1C[C@@H](c2ccc(O)cc2)Oc2cc(O)cc(O)c21 [NAR, naringenin]
IC50 (PI3Kα (p110α/p85α)): > 40 µM
IC50 (PI3Kγ (p120γ)): > 40 µM
IC50 (PI3Kδ (p110δ/p85α)): > 40 µM
OB (oral bioavailability) [1]: 59.29%
IC50 (PI3Kβ (p110β/p85α)): > 40 µM

COc1ccc([C@@H]2CC(=O)c3c(O)cc(O)cc3O2)cc1O [HES, hesperetin]
HL (drug half-life) [2]: 15.78
IC50 (PI3Kα (p110α/p85α)): > 40 µM
IC50 (PI3Kγ (p120γ)): > 40 µM
IC50 (PI3Kδ (p110δ/p85α)): > 40 µM
OB (oral bioavailability) [1]: 70.31%
IC50 (PI3Kβ (p110β/p85α)): > 40 µM

Source: article PMC9300271, “Identifying Active Compounds and Mechanisms of Citrus changshan-Huyou Y. B. Chang against URTIs-Associated Inflammation by Network Pharmacology in Combination with Molecular Docking” (Evidence-based Complementary and Alternative Medicine : eCAM, 2022)
